Measurements from ChEMBL document CHEMBL4002566, “S-substituted 3,5-dinitrophenyl 1,3,4-oxadiazole-2-thiols and tetrazole-5-thiols as highly efficient antitubercular agents” (Eur J Med Chem, 2017).
Converted amounts (≈) assume the structure as drawn.

How the values were obtained:
Format in all cases: functional
Escherichia coli = assay: Antibacterial activity against Escherichia coli ATCC 8739 after 24 hrs by broth microdilution method
Klebsiella pneumoniae [1] = assay: Antibacterial activity against Klebsiella pneumoniae HK11750/08 after 24 hrs by broth microdilution method
Klebsiella pneumoniae [2] = assay: Antibacterial activity against extended spectrum beta-lactamase producing Klebsiella pneumoniae HK14368/08 after 24 hrs by broth microdilution method
Pseudomonas aeruginosa = assay: Antibacterial activity against Pseudomonas aeruginosa ATCC 9027 after 24 hrs by broth microdilution method
Mycobacterium avium [3] = assay: Antimycobacterial activity against Mycobacterium avium CNCTC My 330/88 after 21 days by micromethod; conditions: CNCTC My 330/88, 504 h
[4] = test system: Mycobacterium tuberculosis; assay: Antimycobacterial activity against Mycobacterium tuberculosis CNCTC My 331/88 after 14 days by micromethod; conditions: CNCTC My 331/88, 336 h
Mycobacterium avium [5] = assay: Antimycobacterial activity against Mycobacterium avium CNCTC My 330/88 after 14 days by micromethod; conditions: CNCTC My 330/88, 336 h
Mycobacterium kansasii [6] = assay: Antimycobacterial activity against Mycobacterium kansasii CNCTC My 235/80 after 14 days by micromethod; conditions: CNCTC My 235/80, 336 h
Mycobacterium kansasii [7] = assay: Antimycobacterial activity against Mycobacterium kansasii 6509/96 clinical isolate after 14 days by micromethod; conditions: 6509/96, 336 h
[8] = test system: Mycobacterium tuberculosis; assay: Antimycobacterial activity against Mycobacterium tuberculosis CNCTC My 331/88 after 21 days by micromethod; conditions: CNCTC My 331/88, 504 h
Mycobacterium kansasii [9] = assay: Antimycobacterial activity against Mycobacterium kansasii CNCTC My 235/80 after 21 days by micromethod; conditions: CNCTC My 235/80, 504 h
Mycobacterium kansasii [10] = assay: Antimycobacterial activity against Mycobacterium kansasii CNCTC My 235/80 after 7 days by micromethod; conditions: CNCTC My 235/80, 168 h
Mycobacterium kansasii [11] = assay: Antimycobacterial activity against Mycobacterium kansasii 6509/96 clinical isolate after 21 days by micromethod; conditions: 6509/96, 504 h
Mycobacterium kansasii [12] = assay: Antimycobacterial activity against Mycobacterium kansasii 6509/96 clinical isolate after 7 days by micromethod; conditions: 6509/96, 168 h

| Molecule | MIC (Escherichia coli) [µM] | MIC (Klebsiella pneumoniae [1]) [µM] | MIC (Klebsiella pneumoniae [2]) [µM] | MIC (Pseudomonas aeruginosa) [µM] | MIC (Mycobacterium avium [3]) [µM] | MIC [4] [µM] | MIC (Mycobacterium avium [5]) [µM] | MIC (Mycobacterium kansasii [6]) [µM] | MIC (Mycobacterium kansasii [7]) [µM] | MIC [8] [µM] | MIC (Mycobacterium kansasii [9]) [µM] | MIC (Mycobacterium kansasii [10]) [µM] | MIC (Mycobacterium kansasii [11]) [µM] | MIC (Mycobacterium kansasii [12]) [µM] |
| --- | --- | --- | --- | --- | --- | --- | --- | --- | --- | --- | --- | --- | --- | --- |
| GENTAMICIN | 0.26 | 0.26 | 0.26 | 1 | – | – | – | – | – | – | – | – | – | – |
| CC(=O)Oc1cc(-c2nnc(SCc3ccc(Cl)c(Cl)c3)o2)cc([N+](=O)[O-])c1 | – | – | – | – | 1000 (≈ 440 µg/mL) | 1000 (≈ 440 µg/mL) | 1000 (≈ 440 µg/mL) | 1000 (≈ 440 µg/mL) | 1000 (≈ 440 µg/mL) | 1000 (≈ 440 µg/mL) | 1000 (≈ 440 µg/mL) | 1000 (≈ 440 µg/mL) | 1000 (≈ 440 µg/mL) | 1000 (≈ 440 µg/mL) |
| COc1ccc(CSc2nnc(-c3cc([N+](=O)[O-])cc(C(F)(F)F)c3)o2)cc1 | – | – | – | – | > 250 | 0.5 (≈ 0.206 µg/mL) | > 250 | 4 (≈ 1.65 µg/mL) | 2 (≈ 0.823 µg/mL) | 0.5 (≈ 0.206 µg/mL) | 4 (≈ 1.65 µg/mL) | 2 (≈ 0.823 µg/mL) | 2 (≈ 0.823 µg/mL) | 1 (≈ 0.411 µg/mL) |
| O=[N+]([O-])c1cc(-n2nnnc2SCc2ccccc2)cc([N+](=O)[O-])c1 | – | – | – | – | 8 (≈ 2.87 µg/mL) | 0.5 (≈ 0.179 µg/mL) | 4 (≈ 1.43 µg/mL) | 2 (≈ 0.717 µg/mL) | 2 (≈ 0.717 µg/mL) | 1 (≈ 0.358 µg/mL) | 4 (≈ 1.43 µg/mL) | 1 (≈ 0.358 µg/mL) | 2 (≈ 0.717 µg/mL) | 1 (≈ 0.358 µg/mL) |
| O=[N+]([O-])c1cc(-c2nnc(SCc3ccc(Cl)c(Cl)c3)o2)cc(C(F)(F)F)c1 | – | – | – | – | > 250 | 0.5 (≈ 0.225 µg/mL) | > 250 | 1 (≈ 0.45 µg/mL) | 1 (≈ 0.45 µg/mL) | 0.5 (≈ 0.225 µg/mL) | 1 (≈ 0.45 µg/mL) | 0.5 (≈ 0.225 µg/mL) | 1 (≈ 0.45 µg/mL) | 0.5 (≈ 0.225 µg/mL) |
| O=[N+]([O-])c1cc(-c2nnc(S)o2)cc([N+](=O)[O-])c1 | – | – | – | – | 125 (≈ 33.5 µg/mL) | 62 (≈ 16.6 µg/mL) | 62 (≈ 16.6 µg/mL) | 125 (≈ 33.5 µg/mL) | 125 (≈ 33.5 µg/mL) | 62 (≈ 16.6 µg/mL) | 125 (≈ 33.5 µg/mL) | 125 (≈ 33.5 µg/mL) | 125 (≈ 33.5 µg/mL) | 125 (≈ 33.5 µg/mL) |
| CSc1nnc(-c2cc([N+](=O)[O-])cc([N+](=O)[O-])c2)o1 | – | – | – | – | 16 (≈ 4.52 µg/mL) | 4 (≈ 1.13 µg/mL) | 16 (≈ 4.52 µg/mL) | 16 (≈ 4.52 µg/mL) | 8 (≈ 2.26 µg/mL) | 8 (≈ 2.26 µg/mL) | 32 (≈ 9.03 µg/mL) | 8 (≈ 2.26 µg/mL) | 16 (≈ 4.52 µg/mL) | 8 (≈ 2.26 µg/mL) |
| CC(=O)Nc1cc(-c2nnc(SCc3ccc([N+](=O)[O-])cc3)o2)cc([N+](=O)[O-])c1 | – | – | – | – | > 500 | > 500 | > 500 | > 500 | > 500 | > 500 | > 500 | > 500 | > 500 | > 500 |
| O=[N+]([O-])c1cc(O)cc(-c2nnc(SCc3ccc(Cl)c(Cl)c3)o2)c1 | – | – | – | – | > 250 | > 250 | > 250 | > 250 | > 250 | > 250 | > 250 | > 250 | > 250 | > 250 |
| Nc1cc(-c2nnc(SCc3ccc(Br)cc3)o2)cc([N+](=O)[O-])c1 | – | – | – | – | 125 (≈ 50.9 µg/mL) | 125 (≈ 50.9 µg/mL) | 125 (≈ 50.9 µg/mL) | 125 (≈ 50.9 µg/mL) | 125 (≈ 50.9 µg/mL) | 125 (≈ 50.9 µg/mL) | 125 (≈ 50.9 µg/mL) | 125 (≈ 50.9 µg/mL) | 125 (≈ 50.9 µg/mL) | 125 (≈ 50.9 µg/mL) |
| Nc1cc(-c2nnc(SCc3ccc(Cl)cc3)o2)cc([N+](=O)[O-])c1 | – | – | – | – | 250 (≈ 90.7 µg/mL) | 250 (≈ 90.7 µg/mL) | 250 (≈ 90.7 µg/mL) | 250 (≈ 90.7 µg/mL) | 250 (≈ 90.7 µg/mL) | 250 (≈ 90.7 µg/mL) | 250 (≈ 90.7 µg/mL) | 250 (≈ 90.7 µg/mL) | 250 (≈ 90.7 µg/mL) | 250 (≈ 90.7 µg/mL) |
| CCCCCSc1nnc(-c2cc([N+](=O)[O-])cc([N+](=O)[O-])c2)o1 | – | – | – | – | 32 (≈ 10.8 µg/mL) | 0.03 (≈ 0.0102 µg/mL) | 16 (≈ 5.41 µg/mL) | 0.03 (≈ 0.0102 µg/mL) | 0.03 (≈ 0.0102 µg/mL) | 0.03 (≈ 0.0102 µg/mL) | 0.03 (≈ 0.0102 µg/mL) | 0.03 (≈ 0.0102 µg/mL) | 0.03 (≈ 0.0102 µg/mL) | 0.03 (≈ 0.0102 µg/mL) |
| COc1ccc(CSc2nnc(-c3cc(NC(C)=O)cc([N+](=O)[O-])c3)o2)cc1 | – | – | – | – | > 500 | > 1000 | > 500 | > 1000 | > 1000 | > 1000 | > 1000 | > 1000 | > 1000 | > 1000 |
| O=[N+]([O-])c1cc(-c2nnc(SCc3ccccc3)o2)cc(C(F)(F)F)c1 | – | – | – | – | > 250 | 1 (≈ 0.381 µg/mL) | > 250 | 4 (≈ 1.53 µg/mL) | 4 (≈ 1.53 µg/mL) | 1 (≈ 0.381 µg/mL) | 4 (≈ 1.53 µg/mL) | 2 (≈ 0.763 µg/mL) | 4 (≈ 1.53 µg/mL) | 2 (≈ 0.763 µg/mL) |
